From patent US20240083897A1, “GCN2 MODULATING COMPOUNDS AND USES THEREOF” (HiberCell, Inc., priority 2021, published 2024) come the findings set out here.

Each structure is given as a SMILES string. Where only a bound is given, the exact number is not on record here.

A word on the IC50: it is the midpoint of a concentration-inhibition curve. A high value points to weaker potency in that assay.

The target of the first test is GCN2 (Homo sapiens (Human), UniProt Q9P2K8). The experiment in a line: TR-FRET biochemical assay for inhibition of GCN2.
Chain of GCN2 (Q9P2K8 whole entry): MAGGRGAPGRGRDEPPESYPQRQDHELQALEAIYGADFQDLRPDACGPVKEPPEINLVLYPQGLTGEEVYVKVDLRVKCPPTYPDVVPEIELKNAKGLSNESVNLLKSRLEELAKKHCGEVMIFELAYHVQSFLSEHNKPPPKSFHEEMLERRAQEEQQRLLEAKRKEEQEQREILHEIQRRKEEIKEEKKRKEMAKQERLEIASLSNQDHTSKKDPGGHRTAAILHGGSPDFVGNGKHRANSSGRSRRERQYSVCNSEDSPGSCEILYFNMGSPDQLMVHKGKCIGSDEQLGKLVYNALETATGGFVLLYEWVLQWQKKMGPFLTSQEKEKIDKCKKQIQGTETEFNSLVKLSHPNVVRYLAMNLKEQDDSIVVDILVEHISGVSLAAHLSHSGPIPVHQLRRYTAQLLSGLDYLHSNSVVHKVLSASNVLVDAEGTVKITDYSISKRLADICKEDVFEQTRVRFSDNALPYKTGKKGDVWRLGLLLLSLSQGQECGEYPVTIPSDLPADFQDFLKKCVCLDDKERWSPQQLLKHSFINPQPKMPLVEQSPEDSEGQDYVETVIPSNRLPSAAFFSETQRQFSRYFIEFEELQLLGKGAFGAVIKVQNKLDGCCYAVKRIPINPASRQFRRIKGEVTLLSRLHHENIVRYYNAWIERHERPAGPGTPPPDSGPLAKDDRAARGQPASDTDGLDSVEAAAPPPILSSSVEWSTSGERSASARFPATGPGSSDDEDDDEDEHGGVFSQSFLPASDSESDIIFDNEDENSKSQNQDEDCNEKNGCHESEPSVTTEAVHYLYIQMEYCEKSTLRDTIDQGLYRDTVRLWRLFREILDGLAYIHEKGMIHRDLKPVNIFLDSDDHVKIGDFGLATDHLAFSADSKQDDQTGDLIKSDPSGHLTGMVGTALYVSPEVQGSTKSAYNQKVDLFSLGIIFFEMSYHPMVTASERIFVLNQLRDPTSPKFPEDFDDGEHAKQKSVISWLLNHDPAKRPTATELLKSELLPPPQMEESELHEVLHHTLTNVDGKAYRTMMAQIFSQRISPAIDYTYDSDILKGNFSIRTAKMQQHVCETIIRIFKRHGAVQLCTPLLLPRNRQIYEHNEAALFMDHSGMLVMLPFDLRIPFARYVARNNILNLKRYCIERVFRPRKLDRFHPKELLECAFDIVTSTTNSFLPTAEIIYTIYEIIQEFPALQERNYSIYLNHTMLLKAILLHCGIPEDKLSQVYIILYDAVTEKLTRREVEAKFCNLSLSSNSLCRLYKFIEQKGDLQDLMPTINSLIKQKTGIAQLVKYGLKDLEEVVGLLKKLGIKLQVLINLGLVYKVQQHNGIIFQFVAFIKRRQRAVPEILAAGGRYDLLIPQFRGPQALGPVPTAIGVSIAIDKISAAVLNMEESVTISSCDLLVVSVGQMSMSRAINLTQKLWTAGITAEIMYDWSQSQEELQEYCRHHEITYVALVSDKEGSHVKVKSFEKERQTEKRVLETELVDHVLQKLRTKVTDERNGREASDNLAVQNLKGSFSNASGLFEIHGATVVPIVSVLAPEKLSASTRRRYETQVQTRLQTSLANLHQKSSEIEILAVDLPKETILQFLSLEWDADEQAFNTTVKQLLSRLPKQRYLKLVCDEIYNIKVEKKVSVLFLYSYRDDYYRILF
Settings: not given
In turn, `COc1ncc(C#N)cc1S(=O)(=O)Nc1ccc(F)c([C@H]2CCc3c(-c4ncc[nH]4)ncn3C2)c1F` [Compound 82-1, 5-cyano-N-[2,4-difluoro-3-[(6R)-1-(1H-imidazol-2-yl)-5H,6H,7H,8H-imidazo[1,5-a]pyridin-6-yl]phenyl]-2-methoxypyridine-3-sulfonamide] yielded an IC50 of 0.05 to 0.5 µM. With `COc1ncc(C#N)cc1S(=O)(=O)Nc1ccc(F)c([C@@H]2CCc3c(-c4ncc[nH]4)ncn3C2)c1F` [Compound 82-2, 5-cyano-N-[2,4-difluoro-3-[(6S)-1-(1H-imidazol-2-yl)-5H,6H,7H,8H-imidazo[1,5-a]pyridin-6-yl]phenyl]-2-methoxypyridine-3-sulfonamide], the IC50 was 0.05 to 0.5 µM. Take `CNC(=O)c1ncn2cc(-c3c(F)ccc(NS(=O)(=O)c4cc(F)cnc4OC)c3F)ncc12` [Compound 90, 6-[2,6-difluoro-3-(5-fluoro-2-methoxypyridine-3-sulfonamido)phenyl]-N-methylimidazo[1,5-a]pyrazine-1-carboxamide]: the IC50 was 0.05 to 0.5 µM. Still for that read-out and setting: in the case of `CNC(=O)c1ncn2cc(-c3c(F)ccc(NS(=O)(=O)c4cc(F)cnc4C)c3F)ncc12` [Compound 91, 6-[2,6-difluoro-3-(5-fluoro-2-methylpyridine-3-sulfonamido)phenyl]-N-methylimidazo[1,5-a]pyrazine-1-carboxamide] it was 0.05 to 0.5 µM; in that of `CNC(=O)c1ncn2cc(-c3c(F)ccc(NS(=O)(=O)c4cc(C#N)cnc4OC)c3F)ncc12` [Compound 92, 6-[3-(5-cyano-2-methoxypyridine-3-sulfonamido)-2,6-difluorophenyl]-N-methylimidazo[1,5-a]pyrazine-1-carboxamide], 0.05 to 0.5 µM. `COc1ncc(Cl)cc1S(=O)(=O)Nc1ccc(F)c(-c2ccc3c(CO)ncn3c2)c1F` [Compound 94, 5-chloro-N-(2,4-difluoro-3-(1-(hydroxymethyl)imidazo[1,5-a]pyridin-6-yl)phenyl)-2-methoxypyridine-3-sulfonamide]: the IC50 was in the range of 0.5 to 1 µM.

`CNC(=O)c1ncn2c1CC[C@H](c1c(F)ccc(NS(=O)(=O)c3cc(Cl)cnc3OC)c1F)[C@@H]2C` [Compound 96-1, (5S,6R)-6-[3-(5-chloro-2-methoxypyridine-3-sulfonamido)-2,6-difluorophenyl]-N,5-dimethyl-5H,6H,7H,8H-imidazo[1,5-a]pyridine-1-carboxamide] yielded an IC50 of 0.05 to 0.5 µM. Regarding `CNC(=O)c1ncn2c1CC[C@@H](c1c(F)ccc(NS(=O)(=O)c3cc(Cl)cnc3OC)c1F)[C@H]2C` [Compound 96-2, (5R,6S)-6-[3-(5-chloro-2-methoxypyridine-3-sulfonamido)-2,6-difluorophenyl]-N,5-dimethyl-5H,6H,7H,8H-imidazo[1,5-a]pyridine-1-carboxamide], the IC50 lay within 0.5 to 1 µM. Compound `COc1ncc(Cl)cc1S(=O)(=O)Nc1ccc(F)c(-c2ccc3c(C(C)O)ncn3c2)c1F` (stereo not drawn) [Compound 100, 5-chloro-N-[2,4-difluoro-3-[1-(1-hydroxyethyl)imidazo[1,5-a]pyridin-6-yl]phenyl]-2-methoxypyridine-3-sulfonamide] registered an IC50 of 0.5 to 1 µM.

The same test, now with this note: GCN2 2 nM, 100 nM GFP-eIF2a, 150 μM ATP, TR-FRET.
Consider `Cc1ncc(F)cc1S(=O)(=O)Nc1ccc(F)c([C@@H]2CCc3c(-c4ncc[nH]4)ncn3C2)c1F` [Compound 80-2, N-[2,4-difluoro-3-[(6S)-1-(1H-imidazol-2-yl)-5H,6H,7H,8H-imidazo[1,5-a]pyridin-6-yl]phenyl]-5-fluoro-2-methylpyridine-3-sulfonamide], for which the IC50 is under 0.05 µM. Regarding `COc1ncc(F)cc1S(=O)(=O)Nc1ccc(F)c([C@H]2CCc3c(-c4ncc[nH]4)ncn3C2)c1F` [Compound 81-1, N-[2,4-difluoro-3-[(6R)-1-(1H-imidazol-2-yl)-5H,6H,7H,8H-imidazo[1,5-a]pyridin-6-yl]phenyl]-5-fluoro-2-methoxypyridine-3-sulfonamide], the IC50 is under 0.05 µM. On to `COc1ncc(F)cc1S(=O)(=O)Nc1ccc(F)c([C@@H]2CCc3c(-c4ncc[nH]4)ncn3C2)c1F` [Compound 81-2, N-[2,4-difluoro-3-[(6S)-1-(1H-imidazol-2-yl)-5H,6H,7H,8H-imidazo[1,5-a]pyridin-6-yl]phenyl]-5-fluoro-2-methoxypyridine-3-sulfonamide], for which the IC50 was under 0.05 µM. The same measure, in the same setting: the result for `Cc1ncc(Cl)cc1S(=O)(=O)Nc1ccc(F)c(-c2cn3cnc(-c4ncc[nH]4)c3cn2)c1F` [Compound 83, 5-chloro-N-[2,4-difluoro-3-[1-(1H-imidazol-2-yl)imidazo[1,5-a]pyrazin-6-yl]phenyl]-2-methylpyridine-3-sulfonamide] reads under 0.05 µM. Still for that read-out and setting: in the case of `COc1ncc(Cl)cc1S(=O)(=O)Nc1ccc(F)c(-c2ccc3c(-c4ncc[nH]4)ncn3n2)c1F` [Compound 85, 5-chloro-N-[2,4-difluoro-3-[5-(1H-imidazol-2-yl)imidazo[1,5-b]pyridazin-2-yl]phenyl]-2-methoxypyridine-3-sulfonamide] it was under 0.05 µM. `COc1ncc(Cl)cc1S(=O)(=O)Nc1ccc(F)c(-c2ccc3c(-c4nnc(C5CC5)[nH]4)ncn3c2)c1F` [Compound 87, 5-chloro-N-[3-[1-(5-cyclopropyl-4H-1,2,4-triazol-3-yl)imidazo[1,5-a]pyridin-6-yl]-2,4-difluorophenyl]-2-methoxypyridine-3-sulfonamide] returned an IC50 of under 0.05 µM. Same read-out and setting: the result for `COc1ncc(Cl)cc1S(=O)(=O)Nc1ccc(F)c(-c2ccc3c(-c4nnc(C(C)C)[nH]4)ncn3c2)c1F` [Compound 88, 5-chloro-N-[2,4-difluoro-3-[1-(5-isopropyl-4H-1,2,4-triazol-3-yl)imidazo[1,5-a]pyridin-6-yl]phenyl]-2-methoxypyridine-3-sulfonamide] reads under 0.05 µM; that for `CNC(=O)c1ncn2cc(-c3c(F)ccc(NS(=O)(=O)c4cc(Cl)cnc4C)c3F)ncc12` [Compound 93, 6-[3-(5-chloro-2-methylpyridine-3-sulfonamido)-2,6-difluorophenyl]-N-methylimidazo[1,5-a]pyrazine-1-carboxamide], under 0.05 µM; that for `Cc1ncc(Cl)cc1S(=O)(=O)Nc1ccc(F)c(-c2ccc3c(-c4ncc[nH]4)ncn3n2)c1F` [Compound 95, 5-chloro-N-[2,4-difluoro-3-[5-(1H-imidazol-2-yl)imidazo[1,5-b]pyridazin-2-yl]phenyl]-2-methylpyridine-3-sulfonamide], under 0.05 µM. On the same count and under the same terms, in the case of `COc1ncc(C#N)cc1S(=O)(=O)Nc1ccc(F)c(-c2ccc3c(-c4ncc[nH]4)ncn3n2)c1F` [Compound 97, 5-cyano-N-[2,4-difluoro-3-[5-(1H-imidazol-2-yl)imidazo[1,5-b]pyridazin-2-yl]phenyl]-2-methoxypyridine-3-sulfonamide] it was under 0.05 µM; in that of `COc1ncc(F)cc1S(=O)(=O)Nc1ccc(F)c(-c2ccc3c(-c4ncc[nH]4)ncn3n2)c1F` [Compound 98, N-[2,4-difluoro-3-[5-(1H-imidazol-2-yl)imidazo[1,5-b]pyridazin-2-yl]phenyl]-5-fluoro-2-methoxypyridine-3-sulfonamide], under 0.05 µM. On the same count and under the same terms, the result for `COc1ncc(Cl)cc1S(=O)(=O)Nc1ccc(F)c(-c2ccc3c(-c4ccno4)ncn3c2)c1F` [Compound 99, 5-chloro-N-(2,4-difluoro-3-(1-(isoxazol-5-yl)imidazo[1,5-a]pyridin-6-yl)phenyl)-2-methoxypyridine-3-sulfonamide] reads under 0.05 µM.
